Laboratory results taken from patent US20210292755A1, “NOVEL DOUBLE-STRANDED OLIGONUCLEOTIDES FOR THE TREATMENT OF CANCER” (SELEXEL, priority 2016, published 2021).
“Also recorded” adds a separate entry of the source.

Experiments:
[1] = system: U87 cells; test: WST1 cell viability test; type: cell-based, human; conditions: 72 hr after transfection
Procedure: (§1) All the cells used in the following examples are human cells and express H2AX.
(§2) The cells are cultured in DMEM or RPMI supplemented with 10% fetal calf serum, or as recommended by the ATCC. When indicated, they are transfected with siRNA using lipofectamine (Life Technologies), following the supplier's protocol. The number of living cells after the indicated treatments was quantified by measuring their metabolic activity by the WST1 test according to the supplier's indications (Roche).

[2] = system: C4-2 cells; test: WST1 cell viability test; type: cell-based, human
Procedure: as §1, §2

[3] = system: 22RV1 cells; test: WST1 cell viability test; type: cell-based, human; conditions: 72 hr after transfection
Procedure: as §1, §2

[4] = system: MDA MB231 cells; test: WST1 cell viability test; type: cell-based, human
Procedure: as §1, §2

[5] = system: LNCaP cells; test: WST1 cell viability test; type: cell-based, human
Procedure: as §1, §2

[6] = system: WM266-4 cells; test: WST1 cell viability test; type: cell-based, human
Procedure: as §1, §2

[7] = system: MDA MB-453 cells; test: WST1 cell viability test; type: cell-based, human; conditions: 72 hr after transfection
Procedure: as §1, §2

[8] = system: H2AX-encoding mRNA; test: RT-qPCR of H2AX-encoding mRNA after siRNA transfection; type: cell-based, human
Procedure: as §1, §2
(§3) The effect of siRNA transfection and/or treatments by different chemotherapeutic agents on gene expression was measured: • by RT-qPCR quantification of mRNAs extracted by a conventional phenol-chloroform method (Trizol). The amount of RNA was normalized by measuring the cyclophilin A-encoding mRNA which is not regulated by AR (delta delta CT method). • by Western blotting on protein extracts. The antibodies used are: AR: Santacruz, N-20 sc-816; H2AX: Merck Millipore ref 07-627; Tubulin: Sigma T6199; Actin: Merck Millipore MAB 1501; γH2AX: Merck Millipore 05-636. […] The antibodies used are the following: γH2AX: Merck Millipore 05-636; 53BP1: Novus, NB 100-304.

[9] = system: AR-encoding mRNA; test: RT-qPCR of AR-encoding mRNA after siRNA transfection; type: cell-based, human; conditions: for AR mRNA expression: both lines
Procedure: as §1, §2, §3

[10] = system: AR; test: Western blot of AR after siRNA transfection; type: cell-based, human; conditions: C4-2 cells, 72 h after transfection
Procedure: as §1, §2, §3

[11] = system: human AR mRNA; test: AR mRNA in tibia of 22RV1 tumor-bearing mice; type: in vivo; conditions: Nude mice with 22RV1 tumors, 0.2 mg/kg/day continuous subcutaneous, 3 weeks, in 154 mM NaCl
Procedure: Left panel: Expression level of human AR mRNA in nude mouse tibia carrying 22RV1 human prostate tumors in vehicle-treated mice (154 mM NaCl, black bar) or siARH2AX-1 diluted in this vehicle (gray bar) and administered subcutaneously continuously for 3 weeks (mean±SEM, n=7 values relative to the mean value of the NaCl group).
(§4) Tumors are obtained by subcutaneous injection of tumor cells into the flank of Nude mice. Only animals on which tumor uptake is found are included in the study and randomized to receive treatment or control treatment.
When indicated, the continuous administration of siRNA is carried out by implantation of an Alzet osmotic pump subcutaneously on the back of the mice, on the opposite side to the tumor when the mice wear one. […]
(§5) At the end of the experiment, the animals are sacrificed, the serum, the tumors and different tissues are dissected, the extracted RNAs and the siRNAs present in these RNAs are quantified.
(§6) In the experiment shown in FIG. 14, 22RV1 cells were implanted in Nude mice. Once the tumor was detected, Alzet pumps administering either 0.2 mg/kg/day siARH2AX-1 siRNA formulated in saline (154 mM NaCl), or the vehicle alone, were implanted for 3 weeks. At the end of treatment, the bones (tibia) were recovered to quantify siARH2AX-1, and the androgen receptor- and the HPRT-encoding mRNAs of human origin.

[12] = system: H2AX; test: Western blot of H2AX after siRNA transfection; type: cell-based, human
Procedure: as §1, §2, §3

[13] = system: 22RV1 human prostatic tumor; test: Subcutaneous tumor volume in mice; type: in vivo; conditions: 2 mg/kg/day
Procedure: as §4
(§7) When indicated, the continuous administration of siRNA is carried out by implantation of an Alzet osmotic pump subcutaneously on the back of the mice, on the opposite side to the tumor when the mice wear one. The concentration of siRNA in the pump is adjusted to deliver the indicated amount in mg/kg/day taking into account the pump flow rate indicated by the manufacturer.
The subcutaneous tumors volume is estimated by measuring with a calliper the largest (D), the smallest (d) diameter of the tumors and their height (h). The volume is calculated by the formula V=D×d×h×Pi/6.

[14] = siRNA distribution by RT-qPCR, continuous subcutaneous osmotic pump; type: in vivo; conditions: 2 mg/kg/day continuous subcutaneous, 3 days, 22RV1 tumor-bearing mice; 10 mM citrate buffer pH 6 with oxidized LDL (1:0.1 weight:weight) versus 154 mM NaCl
Description: To quantify a siRNA in the biological samples, the inventors have developed a reverse transcription method followed by a quantitative PCR (RT-qPCR). For each siRNA, a specific stem-loop primer, having 8 overflowing nucleotides is synthesized, the 8 nucleotides being complementary to the 8 nucleotides of the 3′ end of the siRNA guide (antisense) strand. After a reverse transcription step, the product obtained is amplified by PCR using two primers, one hybridizing with the region corresponding to the loop of the reverse transcription primer. The 12 nucleotides at 3′ of the second primer having a DNA sequence corresponding to the 12 nucleotides of the 5′ end of the newly synthesized cDNA after reverse transcription of the siRNA guide strand. Detection of the amplification is carried out continuously by the degradation of a Taqman fluorescent probe or by incorporation of SybrGreen.
A range of double stranded siRNAs, from 10^3 to 10^9 copies in the RT reaction, diluted in water is made and treated together with the samples by RT-qPCR.
The biological samples in which siRNAs are quantified are either serum or total RNAs extracted from tissue fragments of known weight assumed to contain siRNA. […]
At the end of the experiment, the animals are sacrificed, the serum, the tumors and different tissues are dissected, the extracted RNAs and the siRNAs present in these RNAs are quantified. […]

[15] = system: γH2AX; test: Western blot of γH2AX after siRNA transfection; type: cell-based, human; conditions: PC3 cells, 72 hours after transfection
Procedure: as §1, §2, §3

[16] = system: 22RV1 human prostate tumors; test: Bone metastases of 22RV1 tumors in Nude mice (human HPRT mRNA); type: in vivo; conditions: 0.2 mg/kg/day continuous subcutaneous, 3 weeks, in 154 mM NaCl
Procedure: Right panel: Metastatic load in bone as measured by the expression of human HPRT mRNA in both groups of animals. Each bar represents bone metastatic load in a mouse.
as §4, §7, §5, §6

[17] = system: PSA-encoding mRNA; test: RT-qPCR of PSA-encoding mRNA after siRNA transfection; type: cell-based, human; conditions: LNCaP or C4-2 cells, both lines, 72 hours after transfection
Procedure: as §1, §2, §3
In the experiment shown in FIG. 4, the LNCaP or C4-2 tumor cells were transfected with the following siRNAs: Cont, siAR7 or siARH2AX-1.

[18] = system: γH2AX; test: Indirect immunofluorescence of γH2AX, bleomycin-treated transfected cells; type: cell-based, human; conditions: 72 hours after transfection
Procedure: (§8) FIG. 8: Immuno detection of γH2AX (first column) and 53BP1 (second column) in C4-2 cells treated for 6 h with bleomycin ([…]) or the vehicle added 72 h after transfection of cells by a control siRNA (Cont), siAR7 siRNA, or siARH2AX-1.
as §1, §2, §3
(§9) In the experiment shown in FIG. 8, C4-2 cells were transfected with a control or siARH2AX-1 siRNA. 72 hours after transfection, the cells were then treated for 6 hours with […] of bleomycin or the corresponding vehicle.

[19] = system: 53BP1; test: Indirect immunofluorescence of 53BP1, bleomycin-treated transfected cells; type: cell-based, human
Procedure: as §8, §1, §2, §3, §9

[20] = 40 μl of etoposide added 24 hours after transfection, WST1 48 h later
[21] = C4-2 cells, 48 hours after transfection, relative to control siRNA

For “siARH2AX-1: bispecific AR-H2AX siRNA, SEQ ID NO: 1 GACUCAGCUGCCCCAUCCA[dT][dT] and SEQ ID NO: 2 UGGAUGGGGCAGCUGAGUC[dT][dT] (chain 1 GACUCAGCUGCCCCAUCCANN; chain 2 UGGAUGGGGCAGCUGAGUCNN; 3' dTdT overhangs, chemistry not fully specified)”, the “cell viability / proliferation” value [1] was “inhibits the proliferation of all cell lines”, the “cell viability / proliferation” value ([2]; 72 hr after transfection) was “inhibits the proliferation of all cell lines” and the cell viability ([2]; 90 hours after transfection) was “significantly reduced”. For the same substance, the “cell viability, siRNA combined with bleomycin” value ([2]; bleomycin (10 μM) added 48 hours after transfection, read 48 hours later, versus chemotherapeutic agent alone) was “potentiate to inhibit cell viability”, the “cell viability, siRNA combined with etoposide” value (shortened to “cell viability … with etoposide”) ([2]; etoposide (10 μM) added 48 hours after transfection, read 48 hours later, versus chemotherapeutic agent alone) was “potentiate to inhibit cell viability” and the “cell viability / proliferation” value [3] was “inhibits the proliferation of all cell lines”. For the same substance, the “cell viability … with etoposide” value [4, 20] was “potentiate when combined”, the “cell viability / proliferation” value ([4]; 72 hr after transfection) was “inhibits the proliferation of all cell lines” and the cell viability ([4]; 90 hours after transfection) was “significantly reduced”. The “cell viability / proliferation” value ([5]; 72 hr after transfection) was “inhibits the proliferation of all cell lines”, the “cell survival, siRNA combined with bleomycin, versus addition of the separate effects” value ([5]; bleomycin (10 μM)) was “approximately twice as inhibitory” and the “cell viability … with etoposide” value [6, 20] was “potentiate when combined”. The “cell viability / proliferation” value ([6]; 72 hr after transfection) was “inhibits the proliferation of all cell lines”, the “cell viability / proliferation” value [7] was “inhibits the proliferation of all cell lines” and the “H2AX expression (mRNA)” value [8, 21] was “much more effective than siAR2 siRNA in inhibiting H2AX expression”. For the same substance, the “inhibition of H2AX mRNA expression” value ([8]; LNCaP or C4-2 cells, both lines, 72 hours after transfection) was “more than 90%”, the “H2AX mRNA expression” value ([8]; LNCaP or MDA MB-453 cells, both lines, 72 h after transfection) was “inhibits the expression of the two AR- and H2AX-encoding mRNAs” and the “AR expression (mRNA)” value [9, 21] was “inhibit AR expression in a similar manner”. The “AR mRNA expression” value ([9]; LNCaP or C4-2 cells, 72 hours after transfection) was “inhibit the expression of AR and PSA”, the “AR mRNA expression” value ([9]; LNCaP or MDA MB-453 cells, 72 h after transfection) was “inhibits the expression of the two AR- and H2AX-encoding mRNAs” and the AR protein expression [10] was “inhibits the expression of both AR and H2AX proteins”. The “expression of the androgen receptor in the bones (tibia)” value [11] was “inhibit the expression of the androgen receptor”, the H2AX protein expression ([12]; C4-2 cells, 72 h after transfection) was “inhibits the expression of both AR and H2AX proteins” and the H2AX protein expression ([12]; PC3 cells, 72 hours after transfection) was “is inhibited”. The “tumor development, combination with etoposide” value ([13]; siARH2AX-1 2 mg/kg/day continuous subcutaneous plus etoposide intraperitoneal) was “potentiates the effect of these two treatments taken separately; also recorded: amplifies tumor growth inhibition”, the tumor development ([13]; siARH2AX-1 2 mg/kg/day continuous subcutaneous, 22 days, 10 mM citrate buffer pH 6 with 10 mM MgCl2) was “as effective as the high dose of etoposide; also recorded: effectively inhibits tumor development” and the “concentration of siARH2AX-1 in serum, different organs and tumors” value [14] was “increases the concentration”. For the same substance, the γH2AX phosphorylated form [15] was “inhibition of its γH2AX phosphorylated form”, the “number of mice spontaneously developing bone metastases” value [16] was “decrease in the number of mice spontaneously developing bone metastases” and the “size of bone metastases (human HPRT mRNA level in bone)” value [16] was “decrease in the size of these tumors”. For the same substance, the “PSA mRNA expression” value [17] was “inhibit the expression of AR and PSA”, the “expression of H2AX (immunofluorescence)” value ([18]; C4-2 cells, without bleomycin, compared to control condition) was “very small compared to the control condition” and the “γH2AX labeling after bleomycin” value ([18]; siRNA-transfected C4-2 cells, bleomycin 6 hours) was “no increase H2AX”. For the same substance, the “expression of 53BP1” value ([19]; C4-2 cells, 72 hours after transfection, without bleomycin, compared to control condition) was “comparable”, the DNA repair ([19]; conclusion from γH2AX/53BP1 experiment in C4-2 cells) was “inhibits DNA repair” and the “recruitment of 53BP1 to DNA lesions after bleomycin” value ([19]; siRNA-transfected C4-2 cells, 72 hours after transfection, bleomycin 6 hours) was “no increase H2AX or recruitment of 53BP1”.
